Here are results for one compound from patent US9192791B2, “Topical composition containing theanine derivatives for use on skin” (AMOREPACIFIC CORPORATION, priority 2011, dated 2015).

The test system of this experiment is Human neonatal epidermal keratinocytes (HEK). Briefly: Evaluation of calcium influx in human neonatal epidermal keratinocytes (fluo 3-AM, confocal microscope). The experiment is classed as cell-based. The settings on record: theanine 2.5 mM, theanine derivative 0.5 mM, 5 minutes, then fluo 3-AM 15 minutes, FIG. 4. The protocol:
Stabilized human neonatal epidermal keratinocytes (HEK, Lonza, NHEK-Neo-Neonatal Normal Human Epidermal Keratinocytes, Pooled) are dispensed in a confocal dish at a density of 2×10^4 cells per well and treated with theanine (2.5 mM) and the theanine derivative (0.5 mM) for 5 minutes and then with […] fluo 3-AM for 15 minutes. The fluo 3 decomposed in the cells and combined with calcium is observed with a confocal microscope (Nikon, Japan) to measure the difference of fluorescence and evaluate the migration of calcium in the cells.

On to `CCNC(=O)CC[C@H](N)C(=O)O` [theanine], for which the “migration of calcium in the cells” value was “definitely different behaviors from each other”.
